Results as given in patent US4029671A, “3-[(5-nitro-2-imidazolyl)pyrazol-5-yl]oxamic acid derivatives” (priority 1976, dated 1977).
Converted amounts (≈) assume the structure as drawn. Structures can show the parent of a compound that is named as a salt.

Columns and labels:
Test in all cases: Agar dilution susceptibility of anaerobic bacteria (Chart 1)
Type in all cases: cell-based
[1] = test system: Bacteroides fragilis sp. fragilis 1874; conditions: agar dilution, 37° C., Bacteroides fragilis sp. fragilis 1874; for MIC: Bacteroides fragilis, 24 h, read-out: 24 Hr. MIC
[2] = test system: Bacteroides fragilis sp. fragilis 1936B; conditions: agar dilution, 37° C., Bacteroides fragilis sp. fragilis 1936B; for MIC: Bacteroides fragilis, 24 h, read-out: 24 Hr. MIC
[3] = test system: Bacteroides fragilis sp. fragilis 2; conditions: Bacteroides fragilis, 24 h, agar dilution, 37° C.; Bacteroides fragilis sp. fragilis 2; read-out: 24 Hr. MIC

| SMILES | 24 Hr. MIC ([1]; sodium salt) [µg/mL] | 24 Hr. MIC ([2]; sodium salt) [µg/mL] | MIC [1] [µg/mL] | 24 Hr. MIC [2] [µg/mL] | MIC [3] [µg/mL] | MIC [2] [µg/mL] | 24 Hr. MIC [1] [µg/mL] |
| --- | --- | --- | --- | --- | --- | --- | --- |
| CCOC(=O)C(=O)Nc1c(C#N)c(-c2ncc([N+](=O)[O-])n2C)nn1C [Example 2, N-[4-Cyano-1-methyl-3-(1-methyl-5-nitroimidazol-2-yl)pyrazol-5-yl]oxamic acid, ethyl ester, sodium salt] | 0.25 | ≤ 0.25 |  |  |  |  |  |
| Cn1nc(-c2ncc([N+](=O)[O-])n2C)c(C#N)c1NC(=O)C(=O)c1ccccc1 [Example 10, N-[4-cyano-1-methyl-3-(1-methyl-5-nitroimidazol-2-yl)pyrazol-5-yl]-2-phenylglyoxylamide] |  |  | ≤ 0.03 | 2 | ≤ 0.03 |  |  |
| CCC[C@@H]1C[C@@H](C(=O)N[C@@H]([C@H]2O[C@H](SC)[C@H](O)[C@@H](O)[C@H]2O)[C@H](C)Cl)N(C)C1 [C, clindamycin, reference compound] |  |  | ≤ 0.06 |  | 0.25 (≈ 0.588 µM) | ≤ 0.5 |  |
| Cn1nc(-c2ncc([N+](=O)[O-])n2C)c(C#N)c1NC(=O)C(=O)NN [Example 6, 5-[4-Cyano-1-methyl-3-(1-methyl-5-nitroimidazol-2-yl)pyrazol5-yl]semioxamazide] |  |  | 0.25 (≈ 0.75 µM) | ≤ 0.25 | 0.25 (≈ 0.75 µM) |  |  |
| CCOC(=O)C(=O)Nc1c(C#N)c(-c2ncc([N+](=O)[O-])n2C)nn1C [Example 1, N-[4-Cyano-1-methyl-3-(1-methyl-5-nitroimidazol-2-yl)pyrazol-5-yl]oxamic acid, ethyl ester] |  |  |  |  | 0.25 (≈ 0.72 µM) | ≤ 0.25 | 0.06 |
